We go through seven compounds from US20030114393A1 (priority 1999, published 2003).

The conditions of series [1]: literature (Keeler, 1978; Gaffield and Keeler, 1996); cited from earlier work.
For series [2], the system named is MCF-7-AdrR cells. Kind of series: cells. To be noted: for reduction of cell viability by adriamycin in the presence of the steroidal alkaloid: 10 μM alkaloid fixed, increasing adriamycin up to 10 μM, compared with drug-free incubations; for EC50: Homo sapiens, read-out: EC50 of sensitization of the cells to adriamycin; for reduction of cell survival by the steroidal alkaloid alone: alkaloid alone (10 μM), MCF-7-AdrR, MTT. The method, then: Cells were plated in 96-well plates at a density of 4×10^3 cells/well in 0.1 ml drug-free DMEM containing 5% fetal calf serum, and incubated at 37° C. for 48 h. After this time, cytotoxic drugs (adriamycin or vinblastine) were added to the wells at the indicated concentrations, in the absence or presence of the tested steroidal alkaloids, and the cells were further incubated for an additional 48-72 h. The cytotoxic activity of the drugs was then determined using a standard MTT cell survival assay (Hansen, M. B. et al., J. Immunol. Meth 119: 203-210. The […] reagent (diluted from a 5 mg/ml solution in PBS) was added to all the wells at a final concentration of 0.6 mg/ml and the cells were further incubated at 37° C. for 2 or 3 h. The reaction was terminated by adding 100 μl/well of an extraction solution consisting of 20% (w/v) sodium dodecyl sulfate (SDS) in 50% aqueous dimethyl formamide solution, pH 4.8. The plates were left overnight at room temperature in the dark, following which the absorbance was read at 570-nm using an ELISA plate reader. […] Data points represent the mean±S.D. of a quadruplicate determination from a representative experiment that was repeated at least twice. The results are expressed as a percentage of control, drug-free wells.
The cytotoxic effect of the drugs was evaluated by utilizing the MTT cell viability assay, a standard assay for assessing drug resistance and its reversal. Routinely, MCF-7-AdrR cells were exposed to increasing concentrations of drugs for 48 h and the number of viable cells was quantitated after adding the MTT reagent.

In series [3] the test system is MCF-7-AdrR cells. Kind of series: TMR (tetramethylrosamine chloride) accumulation, in vitro drug uptake model. It counts as cell-based, human. To be noted: for EC50: Homo sapiens, 0.5 h, read-out: concentration half maximally effective on TMR accumulation; for maximal stimulation of TMR accumulation / effect on TMR accumulation: MCF-7-AdrR cells; for maximal stimulation of TMR accumulation: 10 μM TMR, 30 minutes at 37° C., relative to TMR alone; for effect on TMR accumulation: FIG. 1A/1B. The method, then:
The effect of steroidal alkaloids on drug transport was examined by measuring cellular accumulation of TMR, a fluorescent model drug, according to Eytan et al. (Eytan, G. D. et al., Eur. J. Biochem. 248: 104-112, 1997) with some modifications. Cells were seeded in 24-well tissue culture plates at a density of 0.5×10^5 cells/well and were grown for 24 h in growth medium supplemented with 0.5% FCS. TMR (diluted from a 10 mM stock in DMSO) was added to the cells at a final concentration of 10 μM, in 0.5 ml of growth medium in the presence or absence of the tested alkaloids (given prior to the dye as indicated). Cells were incubated with TMR and the tested drug for 30 minutes at 37° C. To terminate the assay, the plates were placed on ice and the cells were washed three times with ice-cold phosphate-buffered saline (PBS) in order to remove residual TMR. The cells were then lysed by incubation with 0.5 ml of 0.5 N NaOH for 20 minutes at room temperature, and the lysates were neutralized with 0.5 ml of 0.5 N HCl and collected. Cell-associated TMR was determined by measuring the fluorescence intensity of the lysates using a fluorescence spectrophotometer (excitation at 555-nm, emission at 575-nm). Blank values obtained at zero time were subtracted from all the fluorescence values and the results were normalized to the amount of cellular protein in each well. Experiments were carried out in triplicates and were repeated at least twice. Results are expressed as a percentage of incubations with TMR alone.
Expression of multidrug transporters markedly decreases drug accumulation in MDR cells. Conversely, in such cells drug accumulation is increased by inhibition of P-gp and related proteins with MDR reversal agents. TMR accumulation was utilized to examine the effect of steroidal alkaloids on P.gp in MCF-7-AdrR adriamycin-resistant human breast adenocarcinoma cells.

Where [4] appears, read: 10 μM tested compound, increasing vinblastine, 48 h, FIG. 5.

Like-named read-outs stand apart in the source and are kept apart here.

Consider `CC1=C2C[C@H]3[C@@H](CC=C4C[C@@H](O)CC[C@@]43C)[C@@H]2CC[C@]12O[C@@H]1C[C@H](C)CN[C@H]1[C@H]2C` [cyclopamine], for which the teratogenic activity entry in series [1] is “potent teratogen”. In addition, in the series with MCF-7-AdrR cells [2] (48 h), the “reduction of cell viability by adriamycin in the presence of the steroidal alkaloid” value was about 90%, the EC50 turned out to be 2.5 µM and the “reduction of cell survival by the steroidal alkaloid alone” value (shortened to “reduction of cell survival”) was 10-20%. For the same compound, in the series with MCF-7-AdrR cells [3], the EC50 is about 1 µM, the “maximal stimulation of TMR accumulation” value amounted to 2 fold and the “effect on TMR accumulation” value is recorded as “concentration-dependent increase”.

Turning to `CC1=C2C(=O)[C@H]3[C@@H](CC=C4C[C@@H](O)CC[C@@]43C)[C@@H]2CC[C@]12O[C@@H]1C[C@H](C)CN[C@H]1[C@H]2C` [jervine], the “sensitization to vinblastine: shift of concentration-response curve to the left” value (“sensitization to vinblastine: shift” below) in the series with MCF-7-AdrR cells [2] (setting [4]) is given as “most effective”.

Turning to `C[C@@H]1CN[C@H]2[C@@H](C)[C@@]3(CC[C@H]4[C@@H]5CC[C@H]6C[C@@H](O)CC[C@]6(C)[C@H]5C(=O)[C@@H]4[C@H]3C)O[C@@H]2C1` [tetrahydrojervine], the “sensitization to vinblastine: shift” value in the series with MCF-7-AdrR cells [2] (setting [4]) is given as “most effective”.

Take `C[C@H]1CC[C@]2(NC1)O[C@H]1C[C@H]3[C@@H]4CC[C@H]5C[C@@H](O)CC[C@]5(C)[C@H]4CC[C@]3(C)[C@H]1[C@@H]2C` [tomatidine]: the teratogenic activity entry in series [1] is “no teratogenic activity”. For the same compound, in the series with MCF-7-AdrR cells [2] (48 h), the “reduction of cell viability by adriamycin in the presence of the steroidal alkaloid” value is “more than 90%”, the EC50 worked out at 5 µM and the “reduction of cell survival” value is given as “modest cytotoxic activity of its own”. Also, the “reduction of cell survival” value in the series on MCF-7-AdrR cells [2] (48 h, listed as Tomatidine) is reported as 20-25%. Also, in the series on MCF-7-AdrR cells [3], the EC50 was about 1 µM, the “maximal stimulation of TMR accumulation” value stood at 2.5 fold and the “effect on TMR accumulation” value is on record as “concentration-dependent increase”.

`COc1ccc(CCN(C)CCCC(C#N)(c2ccc(OC)c(OC)c2)C(C)C)cc1OC` (stereo not drawn) [verapamil, reference compound]: the “effect on drug (adriamycin) sensitivity of MCF-7-AdrR cells” value in the series with MCF-7-AdrR cells [2] (preliminary experiments, data not shown) is reported as “markedly increase their drug sensitivity”. For the same compound, the “effect on TMR accumulation” value in the series on MCF-7-AdrR cells [3] is reported as “back to near normal levels”.

Turning to `Cc1c([C@H](C)[C@@H]2NC[C@@H](C)C[C@H]2O)ccc2c1C[C@H]1[C@H]2CC=C2C[C@@H](O)CC[C@@]21C` [veratramine], the “sensitization to vinblastine” value in the series on MCF-7-AdrR cells [2] (1 μM veratramine, increasing vinblastine, 48 h, FIG. 5) is given as “sensitize”.

Take “cyclopamine-4en-3-one [cylopamine4-en-3-one]”: the “sensitization to vinblastine: shift” value in the series on MCF-7-AdrR cells [2] was “most effective”.
